Key:
[1] = Stability of prodrugs in mouse plasma after 2 hours of treatment; type: in vitro ADME; conditions: 37° C.
[2] = target: hA1AR (Homo sapiens (Human), UniProt P30542); experiment: Binding affinities for Adenosine receptors (hA1AR); conditions: CHO cells stably expressing recombinant hA1AR
[3] = target: hA2AAR (Homo sapiens (Human), UniProt P29274); experiment: Binding affinities for Adenosine receptors (hA2AAR); conditions: HEK 293 cells stably expressing hA2AAR
[4] = target: hA3AR (Homo sapiens (Human), UniProt P0DMS8); experiment: Binding affinities for Adenosine receptors (hA3AR); conditions: CHO cells stably expressing recombinant hA3AR
Sequence of hA3AR (P0DMS8 whole entry): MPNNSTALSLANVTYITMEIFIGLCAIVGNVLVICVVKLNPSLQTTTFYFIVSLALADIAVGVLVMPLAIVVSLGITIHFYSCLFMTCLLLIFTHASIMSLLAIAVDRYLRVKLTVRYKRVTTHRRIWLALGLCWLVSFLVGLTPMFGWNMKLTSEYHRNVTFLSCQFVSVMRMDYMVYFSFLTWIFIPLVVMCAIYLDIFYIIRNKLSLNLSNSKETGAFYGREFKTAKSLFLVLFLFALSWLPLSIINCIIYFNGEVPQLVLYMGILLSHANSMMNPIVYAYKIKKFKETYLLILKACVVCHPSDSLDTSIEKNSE

Sequence of hA2AAR (P29274 whole entry): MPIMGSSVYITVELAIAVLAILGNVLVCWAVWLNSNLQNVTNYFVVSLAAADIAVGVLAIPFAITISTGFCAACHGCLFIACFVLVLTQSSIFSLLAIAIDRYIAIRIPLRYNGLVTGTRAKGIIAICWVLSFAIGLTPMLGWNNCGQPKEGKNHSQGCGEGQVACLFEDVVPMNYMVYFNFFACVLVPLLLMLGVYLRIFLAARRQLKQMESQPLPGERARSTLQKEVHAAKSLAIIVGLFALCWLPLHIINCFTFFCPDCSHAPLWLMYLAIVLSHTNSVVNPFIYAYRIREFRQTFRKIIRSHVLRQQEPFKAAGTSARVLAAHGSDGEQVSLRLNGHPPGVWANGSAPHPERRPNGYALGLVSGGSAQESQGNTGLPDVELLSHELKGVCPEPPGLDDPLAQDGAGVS
Sequence of hA1AR (P30542 whole entry): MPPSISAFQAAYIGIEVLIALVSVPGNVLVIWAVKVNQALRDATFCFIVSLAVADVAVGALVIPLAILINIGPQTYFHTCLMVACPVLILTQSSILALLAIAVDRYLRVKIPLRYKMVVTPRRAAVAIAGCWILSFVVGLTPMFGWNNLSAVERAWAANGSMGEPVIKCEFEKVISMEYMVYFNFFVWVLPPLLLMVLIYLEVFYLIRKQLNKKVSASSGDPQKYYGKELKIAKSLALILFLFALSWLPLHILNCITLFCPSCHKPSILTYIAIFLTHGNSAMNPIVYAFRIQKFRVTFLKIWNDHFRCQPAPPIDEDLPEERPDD

SMILES	Parent prodrug remained after 2 hours [1]	Ki [2]	Ki [3]	Ki [4]
CC(C)[C@H](N)C(=O)OC1C(OC(=O)[C@@H](N)C(C)C)[C@@H]2C[C@@H]2C1n1cnc2c(NC(C3CC3)C3CC3)nc(Cl)nc21.Cl.Cl (stereo partly drawn) [Compound T1.1, (1R,5S)-4-(2-chloro-6-((dicyclopropylmethyl)amino)-9H-purin-9-yl)bicyclo[3.1.0]hexane-2,3-diyl (2S,2'S)-bis(2-amino-3-methylbutanoate), dihydrochloride salt]	11%			
CNC(=O)[C@@]12C[C@@H]1[C@@H](n1cnc3c(NCc4cccc(Cl)c4)nc(C#Cc4ccc(F)c(F)c4)nc31)[C@H](OC(=O)[C@@H](N)C(C)C)[C@@H]2OC(=O)[C@@H](N)C(C)C [Compound T8.1, (1S,2R,3S,4R,5S)-4-(6-((3-chlorobenzyl)amino)-2-((3,4-difluorophenyl)ethynyl)-9H-purin-9-yl)-1-(methylcarbamoyl)bicyclo[3.1.0]hexane-2,3-diyl (2S,2'S)-bis(2-amino-3-methylbutanoate)]	9%			
CNC(=O)[C@@]12C[C@@H]1[C@@H](n1cnc3c(NCc4cccc(Cl)c4)nc(C#Cc4ccc(F)c(F)c4)nc31)[C@@H]1OC3(CCN(C)CC3)O[C@@H]12 [Compound T9.8, (3aR,3bS,4aS,5R,5aS)-5-(6-((3-chlorobenzyl)amino)-2-((3,4-difluorophenyl)ethynyl)-9H-purin-9-yl)-N,1′-dimethyltetrahydrospiro[cyclopropa[3,4]cyclopenta[1,2-d][1,3]dioxole-2,4′-piperidine]-3b(3aH)-carboxamide]	17%			
C[C@@H]1CC(n2cnc3c(NC(C4CC4)C4CC4)nc(Cl)nc32)C(O)C1O (some centres unmarked) [Compound T13.1]		< 1 µM	> 10 µM	1 to 10 µM
C[C@@H]1CC(n2cnc3c(NC4C5(CC5)C45CC5)nc(Cl)nc32)C(O)C1O (some centres unmarked) [Compound T13.2]		< 1 µM	1 to 10 µM	> 10 µM
C[C@@H]1CC(n2cnc3c(NC(C4CCC4)C4CCC4)nc(Cl)nc32)C(O)C1O (some centres unmarked) [Compound T13.3]		< 1 µM	> 10 µM	> 10 µM
C[C@@H]1CC(n2cnc3c(NC(C4CC4)C4CC4)ncnc32)C(O)C1O (some centres unmarked) [Compound T13.4]		1 to 10 µM	1 to 10 µM	> 10 µM
OC[C@H]1O[C@@H](n2cnc3c(NC4C5(CC5)C45CC5)nc(Cl)nc32)[C@@H](O)C1O (some centres unmarked) [Compound T14.2]		> 10 µM	1 to 10 µM	> 10 µM

Next, values leading:

Parent prodrug remained after 2 hours [1]	Ki [2]	Ki [3]	Ki [4]	SMILES
14%				CC(C)[C@H](N)C(=O)N(c1nc(Cl)nc2c1ncn2[C@H]1[C@H](O)[C@H](O)[C@@H]2C[C@@H]21)C(C1CC1)C1CC1 [Compound T3.1, (S)-2-amino-N-(2-chloro-9-((1S,2R,3S,4R,5R)-3,4-dihydroxybicyclo[3.1.0]hexan-2-yl)-9H-purin-6-yl)-N-(dicyclopropylmethyl)-3-methylbutanamide]
21%				CC(C)[C@H](N)C(=O)OC[C@@]12C[C@@H]1[C@@H](n1cnc3c(NC(C4CC4)C4CC4)nc(Cl)nc31)[C@H](O)[C@@H]2O [Compound T4.1, ((1R,2R,3S,4R,5S)-4-(2-chloro-6-((dicyclopropylmethyl)amino)-9H-purin-9-yl)-2,3-dihydroxybicyclo[3.1.0]hexan-1-yl)methyl L-valinate]
	> 10 µM	> 10 µM	> 10 µM	C[C@@H]1CC(n2cnc3c(NC4C5(CC5)C45CC5)ncnc32)C(O)C1O (some centres unmarked) [Compound T13.5]
	1 to 10 µM	1 to 10 µM	> 10 µM	C[C@@H]1CC(n2cnc3c(NC(C4CCC4)C4CCC4)ncnc32)C(O)C1O (some centres unmarked) [Compound T13.6]
	1 to 10 µM	1 to 10 µM	> 10 µM	OC[C@H]1O[C@@H](n2cnc3c(NC(C4CC4)C4CC4)nc(Cl)nc32)[C@@H](O)C1O (some centres unmarked) [Compound T14.1]
	> 10 µM	1 to 10 µM	< 1 µM	OC[C@H]1O[C@@H](n2cnc3c(NC(C4CCC4)C4CCC4)nc(Cl)nc32)[C@@H](O)C1O (some centres unmarked) [Compound T14.3]
	> 10 µM	1 to 10 µM	1 to 10 µM	OC[C@H]1O[C@@H](n2cnc3c(NC(C4CC4)C4CC4)ncnc32)[C@@H](O)C1O (some centres unmarked) [Compound T14.4]
	1 to 10 µM	> 10 µM	> 10 µM	OC[C@H]1O[C@@H](n2cnc3c(NC4C5(CC5)C45CC5)ncnc32)[C@@H](O)C1O (some centres unmarked) [Compound T14.5]
	1 to 10 µM	1 to 10 µM	1 to 10 µM	OC[C@H]1O[C@@H](n2cnc3c(NC(C4CCC4)C4CCC4)ncnc32)[C@@H](O)C1O (some centres unmarked) [Compound T14.6]
